The text below walks through data of patent US20130035326A1 (AMBIT BIOSCIENCES CORPORATION, priority 2009, published 2013).

SMILES strings stand for the structures.

The target of assay [1] is kinase panel containing either 359 or 386 distinct kinases. Kind of assay: Selectivity score S10 from competition binding against a panel of kinases. The following applies: compounds at 10 μM; panel of 386 distinct kinases. How it is done:
Competition binding assays used herein were developed, validated and performed as described in Fabian et al., Nature Biotechnology 2005, 23,329-336. Kinases were produced as fusions to T7 phage (See, Fabian et al. or WO04/015142) or alternatively, the kinases were expressed in HEK-293 cells and subsequently tagged with DNA for PCR detection (See, WO08/005,310). For the binding assays, streptavidin-coated magnetic beads were treated with biotinylated affinity ligands for 30 min at room temperature to generate affinity resins. The liganded beads were blocked with excess biotin and washed with blocking buffer (SeaBlock (Pierce), 1% BSA, 0.05% Tween 20, 1 mM DTT) to remove unbound ligand and to reduce non-specific binding. Binding reactions were assembled by combining kinase, liganded affinity beads, and test compounds in 1× binding buffer (20% SeaBlock, 0.17×PBS, 0.05% Tween 20, 6 mM DTT). Test compounds were prepared as 100× stocks in DMSO and diluted into the aqueous environment. Kds were determined using an eleven point threefold serial dilutions. DMSO or control compounds were was added to control assays lacking a test compound. Primary screen assays were performed in polypropylene 384-well plates in a final volume of 20-40 μL, while Kd determinations were performed in polystyrene 96-well plates in a final volume of 135 μL. The assay plates were incubated at room temperature with shaking for 1 hour to allow the binding reactions to reach equilibrium, and the affinity beads were washed extensively with wash buffer (1×PBS, 0.05% Tween 20) to remove unbound protein. The beads were then resuspended in elution buffer (1×PBS, 0.05% Tween 20, 0.5 μM non-biotinylated affinity ligand) and incubated at room temperature with shaking for 30 min. The kinase concentration in the eluates was measured by quantitative PCR.
A selectivity score (S10) is a quantitative measure of selectivity of a compound against a panel of kinases. An S10 was calculated for a compound by dividing the number of kinases found to have a percent of control (DMSO) less than 10 by the total number of distinct kinases tested (excluding mutant variants). Percent of control (POC) is calculated by subtracting the signal of the control compound (POC=0) from the signal of the test compound and dividing the outcome by the signal of DMSO (POC=100) minus the signal of the control compound. For the compounds disclosed herein, S10 scores were obtained by testing the compounds at 10 μM concentration in a kinase panel containing either 359 or 386 distinct kinases.

The target in a further assay is T1, FLT3 kinase (Homo sapiens, UniProt P36888).
T1 construct: made in house; host or cells: T7 phage display or HEK-293 cells
T1 sequence (P36888 27-993): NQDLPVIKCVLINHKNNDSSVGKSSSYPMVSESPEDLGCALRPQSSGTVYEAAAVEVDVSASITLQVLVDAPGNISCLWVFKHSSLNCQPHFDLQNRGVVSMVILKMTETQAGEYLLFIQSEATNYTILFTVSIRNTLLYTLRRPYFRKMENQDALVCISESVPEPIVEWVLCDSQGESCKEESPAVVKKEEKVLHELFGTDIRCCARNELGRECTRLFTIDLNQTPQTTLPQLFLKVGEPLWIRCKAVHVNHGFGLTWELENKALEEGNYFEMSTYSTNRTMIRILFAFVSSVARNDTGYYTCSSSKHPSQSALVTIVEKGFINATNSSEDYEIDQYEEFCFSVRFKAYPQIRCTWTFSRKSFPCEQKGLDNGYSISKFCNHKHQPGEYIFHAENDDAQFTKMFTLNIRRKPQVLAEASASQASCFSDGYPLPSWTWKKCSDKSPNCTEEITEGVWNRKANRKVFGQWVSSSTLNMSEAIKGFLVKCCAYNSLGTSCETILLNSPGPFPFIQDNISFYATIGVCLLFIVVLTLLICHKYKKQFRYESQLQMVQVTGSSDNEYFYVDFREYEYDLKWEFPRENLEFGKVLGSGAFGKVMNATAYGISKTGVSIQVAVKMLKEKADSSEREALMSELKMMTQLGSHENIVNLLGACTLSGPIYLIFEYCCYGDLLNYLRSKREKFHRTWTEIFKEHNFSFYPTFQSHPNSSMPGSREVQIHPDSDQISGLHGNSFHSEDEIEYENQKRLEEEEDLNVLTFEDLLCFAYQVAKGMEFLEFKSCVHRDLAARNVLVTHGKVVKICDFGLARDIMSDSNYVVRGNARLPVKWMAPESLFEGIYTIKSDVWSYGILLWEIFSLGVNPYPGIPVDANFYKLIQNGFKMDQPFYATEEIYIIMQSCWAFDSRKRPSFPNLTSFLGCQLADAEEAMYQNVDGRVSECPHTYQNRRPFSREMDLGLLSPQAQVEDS
The experiment in a line: Competition binding assay, FLT3 Kd. The procedure, abridged:
(§1)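 Kinases, either T7 phage fusions or HEK-293-expressed and DNA-tagged, competed for immobilised biotinylated affinity ligand against test compound, 1 h at RT in binding buffer with 6 mM DTT. Bound kinase eluted with 0.5 μM free ligand and quantified by qPCR; Kd from 11-point threefold dilutions.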

A further assay deals with T2, CSF-1R kinase (Homo sapiens, UniProt P07333).
T2 construct: made in house; host or cells: T7 phage display or HEK-293 cells
T2 sequence (P07333 20-972): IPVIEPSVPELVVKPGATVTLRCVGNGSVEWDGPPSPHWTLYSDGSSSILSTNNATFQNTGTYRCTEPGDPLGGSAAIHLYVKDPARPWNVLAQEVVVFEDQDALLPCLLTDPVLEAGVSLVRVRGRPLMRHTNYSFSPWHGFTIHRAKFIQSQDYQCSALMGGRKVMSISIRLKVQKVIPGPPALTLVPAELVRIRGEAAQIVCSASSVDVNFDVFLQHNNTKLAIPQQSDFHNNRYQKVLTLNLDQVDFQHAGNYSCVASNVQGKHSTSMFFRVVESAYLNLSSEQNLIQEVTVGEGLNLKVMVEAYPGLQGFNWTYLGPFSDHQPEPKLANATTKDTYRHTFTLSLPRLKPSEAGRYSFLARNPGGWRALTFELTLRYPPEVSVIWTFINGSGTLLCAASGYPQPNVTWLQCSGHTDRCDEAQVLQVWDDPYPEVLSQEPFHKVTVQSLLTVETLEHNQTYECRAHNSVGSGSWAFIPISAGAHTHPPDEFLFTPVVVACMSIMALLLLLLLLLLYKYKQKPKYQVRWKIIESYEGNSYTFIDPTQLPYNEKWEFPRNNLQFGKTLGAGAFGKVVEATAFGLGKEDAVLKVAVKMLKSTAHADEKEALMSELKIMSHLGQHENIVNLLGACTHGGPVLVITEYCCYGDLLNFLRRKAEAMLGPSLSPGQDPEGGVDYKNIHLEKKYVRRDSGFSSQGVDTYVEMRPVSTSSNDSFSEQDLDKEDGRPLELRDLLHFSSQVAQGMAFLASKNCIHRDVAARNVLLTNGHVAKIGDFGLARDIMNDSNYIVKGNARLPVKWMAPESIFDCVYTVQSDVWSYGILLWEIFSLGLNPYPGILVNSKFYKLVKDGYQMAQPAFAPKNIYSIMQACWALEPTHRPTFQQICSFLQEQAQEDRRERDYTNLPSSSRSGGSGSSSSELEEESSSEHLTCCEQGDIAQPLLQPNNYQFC
The experiment in a line: Competition binding assay, CSF-1R Kd. An outline of the steps:
as §1

The next assay deals with MV4-11 cells. Kind of assay: MV4-11 cell proliferation assay (Alamar Blue). The following applies: Homo sapiens, MV4-11, 72 h, 3 days incubation. It counts as cell-based. The procedure, abridged: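 Flt3-ITD MV4-11 cells were serum-starved overnight in Iscove's with 0.5% FBS, then given compound at 9 half-log concentrations (0.5% DMSO) for 3 days at 37° C. Alamar Blue reduction was read after 3 h by fluorescence (560/590 nm). IC50 is the mean of duplicates versus negative control.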

The next assay concerns the target T3, KIT kinase (Homo sapiens, UniProt P10721).
T3 construct: made in house; host or cells: T7 phage display or HEK-293 cells
Kind of assay: Competition binding assay, KIT Kd. An outline of the steps: as §1

T3 sequence (P10721 26-976): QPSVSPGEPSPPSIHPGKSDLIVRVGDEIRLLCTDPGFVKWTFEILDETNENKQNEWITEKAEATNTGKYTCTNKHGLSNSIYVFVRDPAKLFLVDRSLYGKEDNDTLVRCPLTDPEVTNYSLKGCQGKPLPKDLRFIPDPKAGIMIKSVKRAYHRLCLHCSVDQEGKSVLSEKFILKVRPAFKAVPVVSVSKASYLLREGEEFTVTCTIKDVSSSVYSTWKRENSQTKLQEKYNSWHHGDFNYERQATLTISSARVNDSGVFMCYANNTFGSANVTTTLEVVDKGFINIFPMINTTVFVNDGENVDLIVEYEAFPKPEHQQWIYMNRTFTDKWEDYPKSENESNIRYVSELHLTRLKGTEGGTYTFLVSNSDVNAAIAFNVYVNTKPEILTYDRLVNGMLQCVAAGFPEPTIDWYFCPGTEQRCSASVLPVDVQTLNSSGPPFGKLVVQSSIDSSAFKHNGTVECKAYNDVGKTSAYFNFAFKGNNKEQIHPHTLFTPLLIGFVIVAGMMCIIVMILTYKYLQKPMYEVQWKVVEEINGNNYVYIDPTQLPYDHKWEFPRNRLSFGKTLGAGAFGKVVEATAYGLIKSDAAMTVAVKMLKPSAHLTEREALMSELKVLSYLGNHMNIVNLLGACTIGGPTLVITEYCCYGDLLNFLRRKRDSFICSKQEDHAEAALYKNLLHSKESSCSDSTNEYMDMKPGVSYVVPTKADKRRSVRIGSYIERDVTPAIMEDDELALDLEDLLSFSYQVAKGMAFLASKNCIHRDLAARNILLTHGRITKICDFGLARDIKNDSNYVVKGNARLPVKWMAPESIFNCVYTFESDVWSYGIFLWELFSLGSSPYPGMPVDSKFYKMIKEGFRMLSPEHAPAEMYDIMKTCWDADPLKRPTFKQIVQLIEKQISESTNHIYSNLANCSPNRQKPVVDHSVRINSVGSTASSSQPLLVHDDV

`CS(=O)(=O)O.Cc1cc(-c2ccc(CC(=O)Nc3cc(C4(C(F)(F)F)CC4)on3)cc2)cnc1N` [Example 130]: in assay [1], the “Kinase specificty: S(10)-386 panel” value is “A (A≦0.1)”.

Regarding `CC(C)(C)c1cc(NC(=O)Cc2ccc(-c3ccc(N)nc3C(F)(F)F)cc2)no1.CS(=O)(=O)O` [Example 129], the “Kinase specificty: S(10)-386 panel” value in assay [1] is recorded as “A (A≦0.1)”.

Regarding `CC(C)(C)c1cc(NC(=O)Cc2ccc(-c3cnc(N)c(C#N)c3)cc2)no1` [Example 93, 5-(4-(2-(5-tert-butylisoxazol-3-ylamino)-2-oxoethyl)phenyl)-3-cyanopyridin-2-aminium methanesulfonate], the dissociation constant Kd is 0.001 to 0.01 µM at FLT3 kinase, at most 0.01 µM on CSF-1R kinase and 0.001 to 0.01 µM at KIT kinase. In addition, the half-inhibitory concentration (IC50) in the assay with MV4-11 cells was at most 0.001 µM.

In the case of `CC1(c2cc(NC(=O)Cc3ccc(-c4cnc(N)cc4F)cc3)no2)CC1` [Example 170], the dissociation constant Kd on FLT3 kinase was at most 0.001 µM; on CSF-1R kinase, at most 0.01 µM; at KIT kinase, 0.001 to 0.01 µM. The molecule further gave a half-maximal inhibitory concentration (IC50) in the assay on MV4-11 cells of 0.001 to 0.01 µM.

In the case of `CC(C)(C)c1cc(NC(=O)Cc2ccc(-c3cnc(N)nc3)cc2)no1` [Example 74, 2-(4-(2-aminopyrimidin-5-yl)phenyl)-N-(5-tert-butylisoxazol-3-yl)acetamide], the Kd is at most 0.001 µM on FLT3 kinase, at most 0.01 µM on CSF-1R kinase and 0.001 to 0.01 µM on KIT kinase. This molecule displayed an IC50 in the assay with MV4-11 cells of at most 0.001 µM.

On to `CC(=O)OCC1(c2cc(NC(=O)Cc3ccc(-c4ccc(N)nc4)cc3)no2)CC1` [Example 169], for which the results for the dissociation constant (Kd) at FLT3 kinase, at CSF-1R kinase and on KIT kinase were at most 0.001 µM, at most 0.01 µM and 0.001 to 0.01 µM, respectively. Moreover, the half-inhibitory concentration (IC50) with MV4-11 cells fell in the range of 0.01 to 0.1 µM.

For the molecule `CS(=O)(=O)O.Nc1ncc(-c2ccc(CC(=O)Nc3cc(C4(C(F)(F)F)CC4)on3)cc2)cc1F` [Example 127], in assay [1], the “Kinase specificty: S(10)-386 panel” value is listed as “B (0.1<B≦0.2 nM)”.

Consider `CC(C)(C)c1cc(NC(=O)C(N)c2ccc(-c3ccc(N)nc3)cc2)no1` (stereo not shown) [Example 173], for which the results for the equilibrium dissociation constant (Kd) at FLT3 kinase, on CSF-1R kinase and at KIT kinase were 0.001 to 0.01 µM, above 0.5 µM and 0.01 to 0.1 µM, respectively. This molecule also gave an IC50 in the assay with MV4-11 cells of 0.1 to 0.5 µM.

In the case of `CC(C)(C)c1cc(NC(=O)Cc2ccc(-c3ccc(N)nc3)c(C(F)(F)F)c2)no1` [Example 180], the Kd at FLT3 kinase is 0.01 to 0.1 µM; at CSF-1R kinase, above 0.1 µM; at KIT kinase, above 0.1 µM. In addition, the IC50 in the assay on MV4-11 cells was above 0.1 µM.

`CCN1CCCC1CNc1ccc(-c2ccc(NC(=O)Nc3cc(C(C)(C)C)on3)cc2)cn1` (stereo not shown) [Example 30, 1-(5-tert-butylisoxazol-3-yl)-3-(4-(6-((1-ethylpyrrolidin-2-yl)methylamino)pyridin-3-yl)phenyl)urea]: the dissociation constant Kd at FLT3 kinase was 0.001 to 0.01 µM; at CSF-1R kinase it was 0.01 to 0.1 µM; at KIT kinase, at most 0.001 µM. For the same molecule, the concentration for half-maximal inhibition (IC50) in the assay on MV4-11 cells fell in the range of 0.01 to 0.1 µM.

On to `CC(C)(c1cc(NC(=O)Nc2ccc(-c3ccc(N)nc3)cc2)no1)C(F)(F)F` [Example 35, methanesulfonate], for which the Kd on FLT3 kinase is at most 0.001 µM; on CSF-1R kinase, at most 0.01 µM; on KIT kinase, 0.001 to 0.01 µM. This molecule also displayed a half-inhibitory concentration (IC50) in the assay with MV4-11 cells of at most 0.001 µM.

In the case of `CN(C(=O)Nc1cc(C(C)(C)C)on1)c1ccc(-c2ccc(N)nc2)cc1` [Example 31, 1-(4-(6-aminopyridin-3-yl)phenyl)-3-(5-tert-butylisoxazol-3-yl)-1-methylurea], the Kd at FLT3 kinase is at most 0.001 µM; on CSF-1R kinase, at most 0.01 µM; at KIT kinase it was at most 0.001 µM. The IC50 with MV4-11 cells is 0.01 to 0.1 µM.

Consider `CC(CF)(CF)c1cc(NC(=O)Nc2ccc(-c3ccc(N)nc3)cn2)no1` [Example 41, 1-(6′-amino-3,3′-bipyridin-6-yl)-3-(5-(1,3-difluoro-2-methylpropan-2-yl)isoxazol-3-yl)urea], for which the figures for the Kd on FLT3 kinase, on CSF-1R kinase and on KIT kinase were at most 0.001 µM, at most 0.01 µM and at most 0.001 µM, respectively. The molecule further yielded an IC50 in the assay on MV4-11 cells of 0.001 to 0.01 µM.

Take `Nc1ccc(-c2ccc(NC(=O)Nc3cc(C4(C(F)(F)F)CC4)on3)nc2)cn1` [Example 40, 1-(6′-amino-3,3′-bipyridin-6-yl)-3-(5-(1-(trifluoromethyl)cyclopropyl)isoxazol-3-yl)urea]: the results for the Kd at FLT3 kinase, at CSF-1R kinase and at KIT kinase were at most 0.001 µM, at most 0.01 µM and at most 0.001 µM, respectively. In addition, the IC50 in the assay on MV4-11 cells is 0.001 to 0.01 µM.

Turning to `CC(C)(C)c1cc(NC(=O)Cc2ccc(-c3cnc(N)c(S(=O)(=O)C(C)(C)C)c3)cc2)no1` [Example 176], the values for the dissociation constant (Kd) at FLT3 kinase, on CSF-1R kinase and on KIT kinase were at most 0.001 µM, above 0.5 µM and 0.001 to 0.01 µM, respectively. In the assay on MV4-11 cells, the half-inhibitory concentration (IC50) was 0.01 to 0.1 µM.

For the molecule `Cn1nc(C(C)(C)CF)cc1NC(=O)Nc1ccc(-c2ccc(N)nc2)cc1` [Example 90, 5-(4-(3-(3-(1-fluoro-2-methylpropan-2-yl)-1-methyl-1H-pyrazol-5-yl)ureido)phenyl)pyridin-2-aminium acetate], the results for the dissociation constant Kd at FLT3 kinase, on CSF-1R kinase and on KIT kinase were 0.001 to 0.01 µM, 0.01 to 0.1 µM and 0.001 to 0.01 µM, respectively. The molecule further had an IC50 with MV4-11 cells of 0.1 to 0.5 µM.

With `CC(C)(c1cc(NC(=O)Nc2ccc(-c3ccc(N)nc3)cn2)no1)C(F)(F)F` [Example 43, 1-(6′-amino-3,3′-bipyridin-6-yl)-3-(5-(1,1,1-trifluoro-2-methylpropan-2-yl)isoxazol-3-yl)urea], the equilibrium dissociation constant (Kd) on FLT3 kinase is at most 0.001 µM; on CSF-1R kinase, at most 0.01 µM; at KIT kinase, at most 0.001 µM. The 50% inhibitory concentration (IC50) in the assay on MV4-11 cells lay within 0.001 to 0.01 µM.

Regarding `CC(CF)(CF)c1cc(NC(=O)Nc2ccc(-c3ccc(NCCN4CCOCC4)nc3)cc2)no1` [Example 37, 4-(2-(5-(4-(3-(5-(1,3-difluoro-2-methylpropan-2-yl)isoxazol-3-yl)ureido)phenyl)pyridin-2-ylamino)ethyl)morpholin-4-ium methanesulfonate], the figures for the dissociation constant (Kd) on FLT3 kinase, on CSF-1R kinase and at KIT kinase were at most 0.001 µM, at most 0.01 µM and at most 0.001 µM, respectively. In addition, the IC50 in the assay on MV4-11 cells is 0.001 to 0.01 µM.

As for `CS(=O)(=O)O.Nc1ncc(-c2ccc(CC(=O)Nc3cc(C4(C(F)(F)F)CC4)on3)cc2)cc1F` [Example 127, 3-fluoro-5-(4-(2-oxo-2-(5-(1-(trifluoromethybcyclopropybisoxazol-3-ylamino)ethyl)phenyl)pyridin-2-aminium methanesulfonate], the Kd was at most 0.001 µM on FLT3 kinase, at most 0.01 µM on CSF-1R kinase and 0.001 to 0.01 µM on KIT kinase. Further, the IC50 with MV4-11 cells was at most 0.001 µM.
